From patent US10995104B2, “Catalysts for reversing formaldehyde adducts and crosslinks” (Roche Molecular Systems, Inc., priority 2017, dated 2021)

System: methylene-bis-dAMP dimer
Assay: Reversal of cross-linking of the methylene-bis-dAMP dimer with catalysts, monitored by HPLC
Conditions: 5.0 mM catalyst, 1.0 mM dAMP dimer, 50 mM phosphate buffer pH 5.0, 60° C., aliquots at 10-90 minutes (FIG. 3)
Protocol: Reverse crosslinking of the methylene-bis-dAMP dimer (as shown in FIG. 2) were monitored by HPLC. […] For each reaction mixture, an aliquot (10 μl) was taken at 10 minutes, 20 minutes, 40 minutes, 60 minutes and 90 minutes.

Row | SMILES | reversal of cross-linking (shown as % of dAMP produced), rate compared with no catalyst
1 | Cl.Nc1ccccc1B(O)O [Compound 2, 2-Aminophenylboronic acid] | rates that are much faster than when no catalyst was added
2 | Cc1ccc(N)c(B(O)O)c1 [Compound 3, (2-Amino-5-methylphenyl)boronic acid] | rates that are much faster than when no catalyst was added
3 | CCOP(=O)(OCC)C(N)c1ccccc1.Cl (stereo not shown) [Compound 6, (Aminophenylmethyl)phosphonic acid diethyl ester] | rates that are much faster than when no catalyst was added
4 | [Br][Bi]([Br])[Br] [Compound 7, Bismuth (III) bromide] | rates that are much faster than when no catalyst was added
